How the values were obtained:
HUT78 = experiment: TUNEL assay, vorinostat, JAK inhibitor and combination; assay type: cell-based, human; details: for % TUNEL positive cells: HUT78 cells, 48 h, induction of apoptosis
DB = experiment: CellTiter-Blue Cell Viability Assay; assay type: cell-based; details: Homo sapiens; cell line DB, Lymphoma DLBCL; read-out: IC50 (μM) (Cell Titre-Blue assay)
Description: (§1) For the proliferation assay, cell lines were seeded on 96-well plates (Corning). […] The CellTiter-Blue Reagent™ was added to each of the wells. Experiments were performed in triplicate. The plates were then placed at 37° C. for two hours, and subsequently read on the Flex Station II […] from Molecular Devices. The IC50 values were calculated using the Sigma Plot software.
(§2) An expanded set of 50 human cell lines, including the twelve cell lines listed in Table 1, were assembled (Table 2), that represent a range of lymphoid tumor types (including 10 diffuse large B cell lymphoma, 10 Burkitt lymphoma, 8 multiple myeloma and 5 CTCL).

HUT_102 = experiment: CellTiter-Blue Cell Viability Assay; assay type: cell-based; details: Homo sapiens, HuT-102; cell line HUT_102 (HUT102), Lymphoma - CTCL; read-out: IC50 (μM) (Cell Titre-Blue assay)
Description: as §1, §2

HuT_78 = experiment: CellTiter-Blue Cell Viability Assay; assay type: cell-based; details: Homo sapiens, HuT78; cell line HuT_78, Lymphoma- CTCL; read-out: IC50 (μM) (Cell Titre-Blue assay)
Description: as §1, §2

IM_9 = experiment: CellTiter-Blue Cell Viability Assay; assay type: cell-based; details: Homo sapiens, IM-9; cell line IM_9, Multiple Myeloma; read-out: IC50 (μM) (Cell Titre-Blue assay)
Description: as §1, §2

OCI_LY_19 = experiment: CellTiter-Blue Cell Viability Assay; assay type: cell-based; details: Homo sapiens, OCI-LY19; cell line OCI_LY_19, Lymphoma DLBCL; read-out: IC50 (μM) (Cell Titre-Blue assay)
Description: as §1, §2

RL = experiment: CellTiter-Blue Cell Viability Assay; assay type: cell-based; details: Homo sapiens; cell line RL, Lymphoma - DLBCL; read-out: IC50 (μM) (Cell Titre-Blue assay)
Description: as §1, §2

SU_DHL_4 = experiment: CellTiter-Blue Cell Viability Assay; assay type: cell-based; details: Homo sapiens, SU-DHL-4; cell line SU_DHL_4, Lymphoma DLBCL; read-out: IC50 (μM) (Cell Titre-Blue assay)
Description: as §1, §2

Toledo [1] = experiment: CellTiter-Blue Cell Viability Assay; assay type: cell-based; details: Homo sapiens, cell line Toledo (1), Lymphoma DLBCL, read-out: IC50 (μM) (Cell Titre-Blue assay)
Description: as §1, §2

BC_3 = experiment: ApoONE Homogeneous Caspase-3/7 Assay; assay type: cell-based, human; details: cell line BC_3
Description: (§3) Apoptosis assay: ApoONE® Homogeneous Caspase-3/7 Assay (Promega) was performed according to standard protocol (Promega). For the caspase assay cell lines were seeded and treated with vorinostat as previously indicated. After 24 hours of treatment, a volume equal to the media volume in each well of Apo-One Caspase 3/7 lysis was added to each well with cells. The apoptosis assay was then performed according to the manufacturer's instructions. The plates were read on the Flex Station II 384 from Molecular Devices. Where indicated, DNA fragmentation in response to vorinostat was also assessed in some cell lines by TUNEL assay (BD-PharMingen). […] Samples were analyzed by flow cytometry (FACSCalibur).
as §2

HH = experiment: ApoONE Homogeneous Caspase-3/7 Assay; assay type: cell-based, human; details: cell line HH
Description: as §3, §2

JM1 = experiment: ApoONE Homogeneous Caspase-3/7 Assay; assay type: cell-based, human; details: cell line JM1
Description: as §3, §2

ST486 = experiment: ApoONE Homogeneous Caspase-3/7 Assay; assay type: cell-based, human; details: cell line ST486
Description: as §3, §2

SUP_T1 = experiment: ApoONE Homogeneous Caspase-3/7 Assay; assay type: cell-based, human; details: cell line SUP_T1 (SUPT1)
Description: as §3, §2

Toledo [2] = experiment: ApoONE Homogeneous Caspase-3/7 Assay; assay type: cell-based, human
Description: as §3, §2

Row | Structure (SMILES) | % TUNEL positive cells (HUT78) | IC50 (DB) | IC50 (HUT_102) | IC50 (HuT_78) | IC50 (IM_9) | IC50 (OCI_LY_19) | IC50 (RL) | IC50 (SU_DHL_4) | IC50 (Toledo [1]) | Caspase 3,7 activation- 24 h (1 μM vorinostat)* (BC_3) | Caspase 3,7 activation- 24 h (1 μM vorinostat)* (HH) | Caspase 3,7 activation- 24 h (1 μM vorinostat)* (JM1) | Caspase 3,7 activation- 24 h (1 μM vorinostat)* (ST486) | Caspase 3,7 activation- 24 h (1 μM vorinostat)* (SUP_T1) | Caspase 3,7 activation- 24 h (1 μM vorinostat)* (Toledo [2]; cell line Toledo (1)) | Caspase 3,7 activation- 24 h (1 μM vorinostat)* (Toledo [2]; cell line Toledo (avg)) | induction of apoptosis in combination with vorinostat (TUNEL assay) (HUT78; HUT78 CTCL cells, as detailed in Table 4)
1 | CN[C@@H]1C[C@H]2O[C@@](C)([C@@H]1OC)n1c3ccccc3c3c4c(c5c6ccccc6n2c5c31)C(=O)NC4 [ST, staurosporine] | 40% | – | – | – | – | – | – | – | – | – | – | – | – | – | – | – | –
2 | O=C(CCCCCCC(=O)Nc1ccccc1)NO [vorinostat, suberoylanilide hydroxamic acid] | 11% | 1.87 µM | 0.83 µM | 2.13 µM | 1.57 µM | 1.58 µM | 2.23 µM | 1.88 µM | 0.66 µM | + (Caspase 3,7 activation > 2 fold over untreated control.) | + (Caspase 3,7 activation > 2 fold over untreated control.) | + (Caspase 3,7 activation > 2 fold over untreated control.) | + (Caspase 3,7 activation > 2 fold over untreated control.) | + (Caspase 3,7 activation > 2 fold over untreated control.) | + (Caspase 3,7 activation > 2 fold over untreated control.) | + (Caspase 3,7 activation > 2 fold over untreated control.) | –
3 | CC(C)(C)c1nc2c3cc[nH]c(=O)c3c3cc(F)ccc3c2[nH]1 [Compound B, 2-tert-butyl-9-fluoro-1,6-dihydro-7H-benzo[h]imidazo[4,5-f]isoquinolin-7-one] | 37% | – | – | – | – | – | – | – | – | – | – | – | – | – | – | – | synergistic induction of apoptosis

Source: US7919261B2, “Methods for predicting treatment response based on the expression profiles of protein and transcription biomarkers” (Merck Sharp & Dohme Corp., priority 2006, dated 2011)
